Patent publication US12152011B2, “Usnic acid derivative having TSLP secretion inhibitory ability and use thereof” (SEOUL NATIONAL UNIVERSITY HOSPITAL, priority 2018, dated 2024)

Assays:
[1] = test system: TSLP gene; assay: qRT-PCR of TSLP gene expression in TNF-a stimulated HaCaT cells; format: cell-based, human; conditions: TNF-a stimulation, UA-CA treatment, FIG. 2
[2] = test system: hypertrophic scar; assay: Scar alleviation in rabbit ear hypertrophic scar model (biopsy, H&E histology); format: in vivo
Method: In order to confirm the efficacy of Usnic acid derivatives in relieving hypertrophic scars, the degree of scar relief by UA-CA treatment in hypertrophic scar samples was confirmed through histological comparison and pathological examination of skin tissue after biopsy.
A total of 4 rabbits weighing 3.5 kg (N2W conventional, female, 30 weeks old) were reared for a week in an environment of 21±1° C. 12-hour light/dark cycle, and the experiment was carried out. After anesthesia by intravenous administration of ketamine (60 mg/kg)+xylazine (5 mg/kg), both ears of the rabbit were sufficiently sterilized with betadine, and 5 wounds each with a diameter of 6 mm were made with a biopsy punch and a neck collar was applied. Management and supervision were made to become a hypertrophic scar model for 2 weeks after wound surgery. After confirming the hypertrophic scar model, the test material was treated twice a week for 2 weeks (untreated hypertrophic scar sample (Control), hypertrophic scar sample treated with 1, 5, and 10 mM UA-CA, 100 Thickening scar samples treated with ug/ml tranilast). After 2 weeks, visual evaluation and biopsy of the wound area were performed, followed by H&E staining, and then the changes in epidermal thickness were compared at 200 times and 400 times under a microscope.

[3] = test system: IL-13 gene; assay: qRT-PCR of IL-13 gene expression in TNF-a stimulated HaCaT cells; format: cell-based, human; conditions: TNF-a stimulation, UA-CA treatment, FIG. 4
[4] = test system: IL-1β gene; assay: qRT-PCR of IL-1β gene expression in TNF-a stimulated HaCaT cells; format: cell-based, human; conditions: TNF-a stimulation, UA-CA treatment, FIG. 3
[5] = test system: IL-25 gene; assay: qRT-PCR of IL-25 gene expression in TNF-a stimulated HaCaT cells; format: cell-based, human; conditions: TNF-a stimulation, UA-CA treatment, FIG. 5
[6] = test system: IL-31 gene; assay: qRT-PCR of IL-31 gene expression in TNF-a stimulated HaCaT cells; format: cell-based, human; conditions: TNF-a stimulation, UA-CA treatment, FIG. 6

SMILES: C=C(OC(=O)/C=C/c1ccccc1)C1=C(OC(=O)/C=C/c2ccccc2)C=C2Oc3c(C(C)=O)c(O)c(C)c(O)c3[C@@]2(C)C1=O [UA-CA]
- expression level of the TSLP gene (mRNA, relative to 36B4) [1]: dependently decreased
- scar relief compared with positive control tranilast ([2]; 10 mM UA-CA vs 100 ug/ml tranilast, twice a week for 2 weeks): better scar relief efficacy
- scar relief compared to the untreated hypertrophic scar ([2]; UA-CA 1, 5, 10 mM, twice a week for 2 weeks, FIGS. 7A-7E): scar relief was more advanced
- thickness of the epidermis compared to the untreated thickening scar ([2]; UA-CA-treated sample, H&E staining, FIGS. 8A-8E): became thinner
- expression level of the IL-13 gene (mRNA, relative to 36B4) [3]: dependently decreased
- expression level of the IL-1β gene (mRNA, relative to 36B4) [4]: dependently decreased
- expression level of the IL-25 gene (mRNA, relative to 36B4) [5]: dependently decreased
- expression level of the IL-31 gene (mRNA, relative to 36B4) [6]: dependently decreased
